Here are results for 18 compounds from PubChem BioAssay AID248 (DTP/NCI, 2004).

In this experiment the test system is L1210 leukemia ip in BDF1 mice, survival T/C. In words: NCI In Vivo Anticancer Drug Screen. Data for tumor model L1210 Leukemia (intraperitoneal) in B6D2F1 (BDF1) mice. The conditions noted are these: endpoint: mean survival time, higher = longer survival. On the procedure:
The antitumor activity of compounds was measured in mice bearing transplantable tumors. Survival or tumor size were measured and the results are expressed as the measurement made in the treated group (T) divided by the measurement made in the vehicle treated control group (C). The tumor model used in this assay is L1210 Leukemia (intraperitoneal) in B6D2F1 (BDF1) mice

Where [1] appears, read: dose: 25.0 mg/kg/injection, schedule: Q01DX009 (ip), vehicle: saline.
[2] abbreviates: dose: 25.0 mg/kg/injection, schedule: Q04DX003 (ip), vehicle: saline.
The mark [3] stands for this setting: dose: 50.0 mg/kg/injection, schedule: Q01DX009 (ip), vehicle: saline.
The mark [4] stands for this setting: dose: 50.0 mg/kg/injection, schedule: Q04DX003 (ip), vehicle: saline.
Where [5] appears, read: dose: 100.0 mg/kg/injection, schedule: Q01DX001 (ip), vehicle: saline.
Where [6] appears, read: dose: 100.0 mg/kg/injection, schedule: Q04DX003 (ip), vehicle: saline.
[7] abbreviates: dose: 100.0 mg/kg/injection, schedule: Q04DX003 (ip), vehicle: saline with Tween-80.
The mark [8] stands for this setting: dose: 200.0 mg/kg/injection, schedule: Q04DX003 (ip), vehicle: saline with Tween-80.
[9] abbreviates: dose: 400.0 mg/kg/injection, schedule: Q04DX003 (ip), vehicle: saline with Tween-80.
Where [10] appears, read: dose: 50.0 mg/kg/injection, schedule: Q01DX009 (ip), vehicle: saline with Tween-80.
[11] abbreviates: dose: 200.0 mg/kg/injection, schedule: Q01DX001 (ip), vehicle: saline.
The mark [12] stands for this setting: dose: 400.0 mg/kg/injection, schedule: Q01DX001 (ip), vehicle: saline.
[13] abbreviates: dose: 100.0 mg/kg/injection, schedule: Q01DX009 (ip), vehicle: saline.

Values joined by “and” are separate entries in the source; they are usually repeats but may differ in a detail not shown here. Equal entries are not always repeated. Inconclusive results and toxic doses are left out.

On to `C1CCN(CN2CCCC2)C1`, for which the T/C runs as follows: (dose: 25.0 mg/kg/injection, schedule: Q01DX001 (ip), vehicle: saline) 96 % of control; under setting [1], 92 % of control; under setting [2], 98 % of control; (dose: 50.0 mg/kg/injection, schedule: Q01DX001 (ip), vehicle: saline) 94 % of control; under setting [3], 92 % of control; under setting [4], 105 % of control. The T/C by setting is: under setting [5], 97 % of control and 88 % of control; under setting [6], 88 % of control.

Consider `Nc1ccccc1SCc1ccccc1`, for which the T/C is, setting by setting: under setting [7], 101 % of control; under setting [8], 96 % of control; under setting [9], 98 % of control.

`O=C(Nc1cc(NC(=O)Oc2ccccc2)cc([N+](=O)[O-])c1)Oc1ccccc1`: the T/C is 96 % of control under setting [7], 103 % of control under setting [8] and 88 % of control under setting [9].

As to `O=C1c2ccccc2C(=O)N1CC#CCN1C(=O)c2ccccc2C1=O`, the T/C runs as follows: (dose: 100.0 mg/kg/injection, schedule: Q04DX002 (ip), vehicle: Klucel (hydroxypropylcellulose) (HPC)) 102 % of control; (dose: 200.0 mg/kg/injection, schedule: Q04DX002 (ip), vehicle: Klucel (hydroxypropylcellulose) (HPC)) 91 % of control; (dose: 400.0 mg/kg/injection, schedule: Q04DX002 (ip), vehicle: Klucel (hydroxypropylcellulose) (HPC)) 112 % of control.

On to `NC(=O)N/N=C1/CC2C3C=CC4C3CC2C14` (stereo not given), for which the T/C reads like this: (dose: 37.5 mg/kg/injection, schedule: Q04DX002 (ip), vehicle: saline with Tween-80) 117 % of control; (dose: 75.0 mg/kg/injection, schedule: Q04DX002 (ip), vehicle: saline with Tween-80) 102 % of control; (dose: 150.0 mg/kg/injection, schedule: Q04DX002 (ip), vehicle: saline with Tween-80) 106 % of control; (dose: 300.0 mg/kg/injection, schedule: Q04DX002 (ip), vehicle: saline with Tween-80) 98 % of control.

As to `O=S(=O)(F)c1cc(CBr)ccc1Cl`, the T/C by setting is: (dose: 100.0 mg/kg/injection, schedule: Q04DX002 (ip), vehicle: saline with Tween-80) 98 % of control; (dose: 200.0 mg/kg/injection, schedule: Q04DX002 (ip), vehicle: saline with Tween-80) 95 % of control; (dose: 400.0 mg/kg/injection, schedule: Q04DX002 (ip), vehicle: saline with Tween-80) 101 % of control.

For `O=C1c2ccccc2C(=O)C1c1nc2ccccc2cc1O`, the T/C is 94 % of control (dose: 12.5 mg/kg/injection, schedule: Q01DX009 (ip), vehicle: saline with Tween-80); 96 % of control (dose: 12.5 mg/kg/injection, schedule: Q04DX002 (ip), vehicle: saline with Tween-80); 96 % of control and 102 % of control (dose: 25.0 mg/kg/injection, schedule: Q01DX009 (ip), vehicle: saline with Tween-80); 104 % of control (dose: 25.0 mg/kg/injection, schedule: Q04DX002 (ip), vehicle: saline with Tween-80); 102 % of control under setting [10]; 89 % of control (dose: 50.0 mg/kg/injection, schedule: Q04DX002 (ip), vehicle: saline with Tween-80). In addition, the T/C is 93 % of control (dose: 115.0 mg/kg/injection, schedule: Q01DX009 (ip), vehicle: saline with Tween-80) and 100 % of control (dose: 170.0 mg/kg/injection, schedule: Q01DX009 (ip), vehicle: saline with Tween-80).

Regarding `O=NN(CCCl)C(=O)NC1CCC(CCl)CC1` (stereo not given), the T/C is, setting by setting: (dose: 8.0 mg/kg/injection, schedule: Q01DX001 (ip), vehicle: saline with Tween-80) 114 % of control; (dose: 12.0 mg/kg/injection, schedule: Q01DX001 (ip), vehicle: saline with Tween-80) 181 % of control; (dose: 18.0 mg/kg/injection, schedule: Q01DX001 (ip), vehicle: saline with Tween-80) 183 % of control; (dose: 26.0 mg/kg/injection, schedule: Q01DX001 (ip), vehicle: saline with Tween-80) 320 % of control; (dose: 40.0 mg/kg/injection, schedule: Q01DX001 (ip), vehicle: saline with Tween-80) 310 % of control; (dose: 60.0 mg/kg/injection, schedule: Q01DX001 (ip), vehicle: saline with Tween-80) 372 % of control. The T/C was 297 % of control (dose: 90.0 mg/kg/injection, schedule: Q01DX001 (ip), vehicle: saline with Tween-80) and 187 % of control (dose: 200.0 mg/kg/injection, schedule: Q01DX001 (ip), vehicle: saline with Tween-80).

Turning to `O=[N+]([O-])c1ccc(Cl)c2ccncc12`, the T/C is 102 % of control under setting [10]; 105 % of control (dose: 100.0 mg/kg/injection, schedule: Q01DX009 (ip), vehicle: saline with Tween-80); 105 % of control (dose: 200.0 mg/kg/injection, schedule: Q01DX009 (ip), vehicle: saline with Tween-80).

Consider `Cc1cc(C)nc(/N=C(/N)Nc2ccc(S(=O)(=O)NC(=O)Nc3ccccc3)cc2)n1`, for which the T/C runs as follows: under setting [5], 92 % of control; under setting [11], 98 % of control; under setting [12], 102 % of control.

For the compound `Nc1c[nH]c(=O)[nH]c1=O`, the T/C runs as follows: under setting [5], 89 % of control; under setting [11], 95 % of control; under setting [12], 97 % of control.

Take `OC1CC2C=CC1C2` (stereo not given): the T/C is 93 % of control (dose: 100.0 mg/kg/injection, schedule: Q01DX001 (ip), vehicle: carboxymethylcellulose (CMC)); 107 % of control under setting [5]; 95 % of control (dose: 200.0 mg/kg/injection, schedule: Q01DX001 (ip), vehicle: carboxymethylcellulose (CMC)); 88 % of control under setting [11]; 101 % of control (dose: 400.0 mg/kg/injection, schedule: Q01DX001 (ip), vehicle: carboxymethylcellulose (CMC)); 109 % of control under setting [12].

With `CCN(CC)CCSC(CO)c1ccccc1` (stereo not given), the T/C (dose: 75.0 mg/kg/injection, schedule: Q04DX003 (ip), vehicle: Klucel (hydroxypropylcellulose) (HPC)) is 97 % of control and the T/C (dose: 150.0 mg/kg/injection, schedule: Q04DX003 (ip), vehicle: Klucel (hydroxypropylcellulose) (HPC)) is 92 % of control.

Turning to `Cl[Si](Cl)(Cl)CCc1ccccc1`, the T/C is 104 % of control under setting [1], 101 % of control under setting [3] and 90 % of control under setting [13].

`CCOC(=O)N1CCN(Cn2cc3c4c(cccc42)C2CC(C(=O)NC(C)C)CN(C)C2C3)CC1` (stereo not given): the T/C runs as follows: (dose: 6.25 mg/kg/injection, schedule: Q04DX003 (ip), vehicle: saline) 88 % of control; (dose: 12.5 mg/kg/injection, schedule: Q04DX003 (ip), vehicle: saline) 97 % of control; under setting [2], 100 % of control; under setting [4], 94 % of control; under setting [6], 97 % of control.

Turning to `CC(=O)Oc1cc(C)nc(OC(C)=O)c1`, the T/C under setting [5] is 94 % of control, the T/C under setting [11] was 100 % of control and the T/C under setting [12] was 97 % of control.

For `N#Cc1cnccn1`, the T/C by setting is: under setting [13], 103 % of control; under setting [6], 93 % of control; (dose: 200.0 mg/kg/injection, schedule: Q01DX009 (ip), vehicle: saline) 104 % of control; (dose: 200.0 mg/kg/injection, schedule: Q04DX003 (ip), vehicle: saline) 100 % of control; (dose: 400.0 mg/kg/injection, schedule: Q01DX009 (ip), vehicle: saline) 104 % of control; (dose: 400.0 mg/kg/injection, schedule: Q04DX003 (ip), vehicle: saline) 93 % of control.

`c1ccc([P+](CC[P+](c2ccccc2)(c2ccccc2)c2ccccc2)(c2ccccc2)c2ccccc2)cc1`: the T/C is 96 % of control (dose: 2.5 mg/kg/injection, schedule: Q04DX003 (ip), vehicle: saline); 96 % of control (dose: 5.0 mg/kg/injection, schedule: Q01DX009 (ip), vehicle: saline); 98 % of control (dose: 5.0 mg/kg/injection, schedule: Q04DX003 (ip), vehicle: saline); 96 % of control (dose: 10.0 mg/kg/injection, schedule: Q01DX009 (ip), vehicle: saline); 95 % of control and 98 % of control (dose: 10.0 mg/kg/injection, schedule: Q04DX003 (ip), vehicle: saline); 104 % of control (dose: 20.0 mg/kg/injection, schedule: Q01DX009 (ip), vehicle: saline).
